# Measured values from PMC7746742, “The novel rexinoid MSU-42011 is effective for the treatment of preclinical Kras-driven lung cancer” (Scientific Reports, 2020).
# Read-outs that look alike come from different tables or passages of the source.
# How the values were obtained:
# iNOS = iNOS inhibition assay (LPS-induced NO production, Griess reaction); assay type: cell-based, murine; conditions: RAW264.7 cells, 0–1000 nM rexinoids, LPS 1 ng/ml 24 h, NO by Griess assay, mean ± SE of 3 experiments, read-out: iNOS suppression IC50
# Experimental: To evaluate the anti-inflammatory effects of the novel rexinoids, we utilized the iNOS suppression assay. Inhibition of iNOS in vitro directly correlates with efficacy in our preclinical model of Kras-driven lung cancer. RAW264.7 macrophage-like cells were treated with 0–1 μM rexinoids and stimulated with 1 ng/mL lipopolysaccharide for 24 h, and then NO was measured in the media.
# RAW264.7 cells were plated in 96-well plates (20,000 cells/well). After overnight attachment, cells were treated with twofold serial dilutions (0–1000 nM) of rexinoids. After a 20 min incubation at 37 °C, cells were stimulated with 1 ng/mL LPS for 24 h. NO production was measured in culture medium using the Griess reaction. IC50 values were calculated using GraphPad Prism 8.1.2 software for Windows using a log([nM drug concentration]) vs. response curve fit.
# SREBP [1] = assay: SREBP mRNA expression assay in HepG2 cells (RT-PCR); assay type: cell-based, human; conditions: for fold induction at 0.3 µM: Homo sapiens, read-out: SREBP activation Fold induction vs. Control; for fold induction at 0.3 µM / SREBP activation Fold induction vs. Control: HepG2 cells, 300 nM rexinoids, 8 h, SREBP mRNA by RT-PCR, mean ± SD of 3 experiments; for SREBP mRNA expression compared to the vehicle control: LG100268 300 nM, T0901317 500 nM, alone or combined; for SREBP mRNA expression compared to the vehicle control / Effect on the induction of SREBP mRNA by LG100268: HX 531 100 nM; for Effect on the induction of SREBP mRNA by LG100268: combined with LG100268 300 nM, GSK 2033 500 nM
# Experimental: The goals of our structure–activity relationship (SAR) studies were to explore and discover new scaffolds that not only bind to RXR but also are able to independently modulate both iNOS and SREBP activity in accordance with a previously described screening paradigm. To characterize the effect of the novel rexinoids on SREBP elevation in vitro, HepG2 cells were treated with 300 nM rexinoids for 8 h and SREBP mRNA levels were measured by RT-PCR. SREBP expression ranged from no change to a 4.6-fold induction compared to the vehicle control when treated with the novel compounds. […] Analogs MSU- 41402, 41582, 41407, 41566, 41844, 41845, 42011, and 42166 induced an SREPB mRNA fold expression change of 1–1.5 normalized to a vehicle control, while bexarotene induced an mRNA fold expression change of > 2 (Table 1).
# (§1) HepG2 were plated in 6-well plates (1 × 10^6 cells/well) and, after allowing the cells to attach overnight, were treated with 300 nM rexinoids and/or varying concentrations of T0901317 (TOCRIS # 2373), GSK 2033 (TOCRIS # 5694), HX 531 (TOCRIS # 3912) for 8 h. Total RNA was isolated with TRIzol (Invitrogen, Carlsbad, CA) and 2 µg RNA was used to synthesize cDNA using the SuperScript III reverse transcriptase kit (Invitrogen, Carlsbad, CA). Primers (IDT) for SREBP (F: 5′-GCCGGTTGATAGGCAGCTT-3′; R: 5′-GGTGAGTGGCGGAACCATT-3′) and GAPDH (F: 5′-[…]-3′; R: 5′-[…]-3′), the SYBR Green Supermix (Bio-rad Laboratories, Hercules, CA) and the QuantStudio 7 Flex Real-Time PCR system (95 °C for 20 s followed by 40 cycles of 95 °C for 15 s and 60 °C for 1 min were used to detect mRNA expression. Relative SREBP/GAPDH gene expression was calculated by the delta-delta Ct method. To evaluate protein expression by western blotting, HepG2 cells were plated as above and treated with 300 nM of rexinoids for 24 h. Cells were harvested and lysed in RIPA buffer (1 M Tris–Cl, 5 M NaCl, pH 7.4, 0.5 M EDTA, 25 mM sodium deoxycholate, 1% triton-X, 0.1% SDS, 0.0125% aprotinin) with protease inhibitors (1% PMSF/0.5% apoprotein/0.1%leupeptin). Protein concentration was measured using a BCA assay (Sigma-Aldrich). Proteins (10 µg/well) were separated in 10% SDS-PAGE gels and transferred to nitrocellulose membranes. Membranes were incubated with SREBP (Active Motif; 1:1000) and GAPDH (Santa Cruz Biotechnology; 1:8000) primary antibodies followed by anti-rabbit secondary antibodies conjugated to horseradish peroxidase (Cell Signaling). Signal was detected using the ECL Western Blotting Substrate (GE Healthcare), and protein levels quantified using ImageJ.
# [2] = Plasma triglycerides in MMTV-neu mice fed rexinoids; assay type: in vivo; conditions: MMTV-neu mice fed rexinoids for 10 days, n=5-6 mice/group
# Experimental: fold expression triglyceride
# Supplemental Fig 1. Correlation of SREPB mRNA expression and triglyceride levels. HepG2 human liver cells were treated with 300 nM of rexinoids for 8 hr,and lysates analyzed by RT-PCR. Triglycerides in plasma from MMTV-neu mice fed rexinoids for10 days were measured using a commercial kit(Abcam). *, p <0.01 vs control; **, p<0.05 vs bex and LG268; n=5-6 mice/group.
# SREBP [3] = assay: SREBP protein expression in HepG2 cells (western blot); assay type: cell-based, human; conditions: 300 nM rexinoids, 24 h
# Experimental: Although we have confirmed that the iNOS assay correlates with in vivo efficacy, few investigators have used the induction of SREBP in vitro as a biomarker to predict the ability of novel rexinoids to increase triglycerides in vivo. Elevated triglycerides are a side-effect found with many RXR agonists in preclinical models and by bexarotene in humans[13],[14]. […] HepG2 human liver cells were used, as the liver is the major organ that regulates lipid homeostasis.
# as §1
# A549 lung cancer cells = assay: MTT proliferation assay; assay type: cell-based, human; conditions: 0–1 μM rexinoids, 72 hr
# Experimental: were treated with 0-1 μM rexinoids for 72 hr. Proliferation was measured using the MTT assay.
# MTT Assay. A549 cells were plated in 96-well plates (2,000 cells/well). After overnight attachment, cells were treated with 2 fold dilutions (0-1000 nM rexinoids) for 72 hr. 50 μL 3-(4,5-dimethylthiazol-2-yl)-2,5-diphenyltetrazolium bromide (MTT; Sigma M2128) was added to each well, and cells were incubated at 37 °C for 4 hr. Media was removed and cells were lysed with developing solution (0.04 M HCl in isopropanol). Plates were read at 550 nm.
# (also on this page, place not known: 110A549 Cell Proliferation (% DMSO Control) 37°C)
SMILES,IC50 (iNOS; Mus musculus),"fold induction at 0.3 µM (SREBP [1]; HepG2, 8 h)",other results
Cc1cc2c(cc1C1(c3ccc(C(=O)O)cn3)CC1)C(C)(C)CCC2(C)C [LG100268],–,–,"IC50 (iNOS): 0.083 ± 0.014 µM; Plasma triglyceride levels in mice [2]: 3.42 ± 0.4 nmol/µL; SREBP protein levels compared to DMSO control (SREBP [3]): increased SREBP protein levels; SREBP mRNA expression compared to the vehicle control (SREBP [1]; HepG2, 8 h): 2.5 fold; SREBP activation Fold induction vs. Control (SREBP [1]): 3.06 ± 0.7 fold; Growth / proliferation of A549 lung cancer cells (A549 lung cancer cells): do not inhibit proliferation"
CN1c2ccc([N+](=O)[O-])cc2N=C(c2ccc(C(=O)O)cc2)c2cc3c(cc21)C(C)(C)CCC3(C)C [HX 531],–,–,"SREBP mRNA expression compared to the vehicle control (SREBP [1]; HepG2, 8 h): did not alter SREBP mRNA expression; Effect on the induction of SREBP mRNA by LG100268 (SREBP [1]; HepG2, 8 h): reversed the induction of SREBP by LG100268"
C=C(c1ccc(C(=O)O)cc1)c1ccc(OCC(C)C)c(C(C)C)c1 [MSU-41405],0.267 ± 0.032 µM,1.87 ± 0.3,–
Cc1cc(C)c(S(=O)(=O)N(Cc2ccc(-c3cccc(S(C)(=O)=O)c3)cc2)Cc2ccc(C(F)(F)F)o2)c(C)c1 [GSK 2033],–,–,"SREBP mRNA expression lowered by (SREBP [1]; HepG2, 8 h, GSK 2033 500 nM alone): ~ 50%; Effect on the induction of SREBP mRNA by LG100268 (SREBP [1]; HepG2, 8 h): partially reversed the induction of SREBP by LG100268"
C=C(c1ccc(C(=O)O)cc1)c1cc(C(C)C)c(OC(C)C)cc1C [MSU-41407],0.334 ± 0.017 µM,1.08 ± 0.1,–
C=C(c1ccc(C(=O)O)cc1)c1cc2c(cc1C)CCCC2(C)C [MSU-41404],0.34 ± 0.025 µM,3.07 ± 0.5,–
O=S(=O)(c1ccccc1)N(CC(F)(F)F)c1ccc(C(O)(C(F)(F)F)C(F)(F)F)cc1 [T0901317],–,–,"SREBP mRNA expression compared to the vehicle control (SREBP [1]; HepG2, 8 h): 2.5 fold"
C=C(c1ccc(C(=O)O)cc1)c1cc(C(C)C)c(OCC)cc1C [MSU-41408],0.3 ± 0.079 µM,2.55 ± 0.7,–
CC(/C=C/[C@@H]1C[C@]1(C)c1ccc2c(c1)C(C)(C)CCC2(C)C)=C\C(=O)O [IRX194204],–,–,SREBP protein levels compared to DMSO control (SREBP [3]): increased SREBP protein levels
C/C(=C/C=C/C(C)=C/C(=O)O)c1cc(C(C)(C)C)cc(C(C)(C)C)c1OCC(F)F [LG101506],–,–,Plasma triglyceride levels in mice [2]: 1.21 ± 0.1 nmol/µL; SREBP protein levels compared to DMSO control (SREBP [3]): did not; SREBP activation Fold induction vs. Control (SREBP [1]): 1.06 ± 0.3 fold
C=C(c1ccc(C(=O)O)cc1)c1cc(C(C)C)c(OCC(C)C)cc1C [MSU-41406],0.252 ± 0.055 µM,1.67 ± 0.2,–

# The next lines start with results.
IC50 (iNOS; Mus musculus),SMILES,"fold induction at 0.3 µM (SREBP [1]; HepG2, 8 h)",other results
0.274 ± 0.033 µM,CC(C)(C)c1cc(N(CC2CC2)c2ccc(C(=O)O)cn2)cc(C(C)(C)C)c1 [MSU-41843],2.48 ± 1.8,–
0.343 ± 0.062 µM,CCN(c1ccc(C(=O)O)cc1)c1cc(C(C)(C)C)cc(C(C)(C)C)c1 [MSU-41402],1.37 ± 0.3,–
0.239 ± 0.053 µM,C=C(c1ccc(C(=O)O)cc1)c1cc(C(C)(C)C)cc(C(C)(C)C)c1 [MSU-41566],1.12 ± 0.5,–
0.271 ± 0.092 µM,CC(C)(C)c1cc(-n2c(C(F)(F)F)nc3cc(C(=O)O)ccc32)cc(C(C)(C)C)c1 [MSU-41567],1.58 ± 0.2,–
0.389 ± 0.053 µM,CCN(c1cc(C(F)(F)F)cc(C(F)(F)F)c1)c1ccc(C(=O)O)cn1 [MSU-41844],0.96 ± 0.5,–
0.338 ± 0.031 µM,CCN(c1ccc(C(=O)O)cc1)c1cc(C(C)C)c(OCC(C)C)cc1C [MSU-41845],1.45 ± 0.2,–
0.29 ± 0.061 µM,CCN(c1ccc(C(=O)O)cn1)c1cc(C(C)(C)C)ccc1C [MSU-41583],1.59 ± 0.5,–
0.347 ± 0.031 µM,CCN(c1ccc(C(=O)O)cc1)c1cc(C(C)(C)C)c(OC)c(C(C)(C)C)c1 [MSU-41846],1.63 ± 0.3,–
0.295 ± 0.054 µM,CCN(c1cc(C(C)(C)C)cc(C(C)(C)C)c1)c1ncc(C(=O)O)cn1 [MSU-41582],1.38 ± 0.4,–
0.248 ± 0.06 µM,CCN(c1cc(C(C)(C)C)cc(C(C)(C)C)c1)c1ccc(C(=O)O)cn1 [MSU-41564],2.62 ± 0.7,–
0.331 ± 0.045 µM,C=C(c1ccc(C(=O)O)cc1)c1cc(C(C)(C)C)ccc1OCC [MSU-41403],2.68 ± 0.2,–
0.366 ± 0.049 µM,CCOc1c(N(CC)c2ccc(C(=O)O)cc2)cc(C(C)(C)C)cc1C(C)(C)C [MSU-41565],1.59 ± 0.2,–
